The text below walks through data of US12285512B2, “Composition comprising allulose as active ingredient for skin whitening” (CJ CHEILJEDANG CORPORATION, priority 2018, dated 2025).

Entries after “also recorded” stand apart in the source; their conditions may differ.

The test system of test [1] is tyrosinase from mushroom. The test is described as follows: Quantitative LC analysis of substrate (catechol) in the tyrosinase enzyme reactant. In kind it is biochemical. To be noted: 50 mM sample; for Reduction rate of catechol compared to initial stage of reaction: 0 to 60 min, D.W. control 8.2%; for Reduction rate of catechol compared to initial stage of reaction / amount of catechol in the enzyme reactant: 37° C.; for tyrosinase activity (from catechol consumption, Table 2): LC quantification of catechol. As to the method:
(§1) An enzyme solution was prepared by dissolving 0.2 mg/ml of tyrosinase from mushroom (25 KU, 2687 units/mg solid) in 50 mM sodium phosphate buffer (pH 6.5). […] As a substrate, 30 mM catechol, an enzyme solution, and 100 mM sodium phosphate buffer (pH 6.5) were mixed so that the mixing ratio of catechol:enzyme solution:sodium phosphate buffer was 5:1:4. […] As a co-sample solution, DW was added instead of the enzyme solution. After mixing, absorbance was measured at 420 nm.
A catechol standard preparation was diluted according to concentration, and then was subjected to LC analysis to obtain a standard curve of the catechol. 200 μl of each enzyme reaction solution obtained in Experimental Example 2-1 above was added into a PCR tube, and was reacted at 37° C. for 0 minutes (an enzyme reaction product in which the enzyme was inactivated by heating each enzyme reaction solution for 10 minutes), 10 minutes, 20 minutes, 30 minutes, and 60 minutes to prepare an enzyme reactant for each reaction time. The reaction was stopped using a heat block. The reaction was stopped according to the planned time and heated in a heat block at 105° C. for 10 minutes, and then put in ice and cooled for 10 minutes. The PCR tube was centrifuged twice using a centrifuge. LC analysis was carried out by a typical analytical method. The enzyme reactant was filtered with a 1-ml syringe. The filtered enzyme reactant was injected into an insert, and was subjected to LC analysis. The amount of catechol in the enzyme reactant was measured according to the standard curve, which is obtained in advance, for quantifying catechol.

In a further test the test system is Murine melanocytes. The test is described as follows: Inhibitory effect on melanogenesis: intracellular melanin (OD405) in a-MSH-treated murine melanocytes. To be noted: 50 μM a-MSH, 72 hours, FIG. 1. Type of test: cell-based. Here is the method:
Murine melanocytes were seeded on each 6-well plate at 1×10^4 cells/well. In a sample treatment group 24 hours after the seeding, cells were treated with allulose (CJ CheilJedang, 98% or higher purity) at a concentration of 0.01 wt %, 0.1 wt %, and 1 wt %. In a positive control group, cells were treated with arbutin at 0.02 wt %. A comparative group was treated with 1 wt % of glucose (Sigma Aldrich) or 1 wt % of fructose (Sigma Aldrich). An untreated group (control) was not treated with a sample, or a-MSH inducing melanin production. The sample treatment group, the positive control group, the comparative group, and the negative control group were treated with 50 μM of a-MSH. After 72 hours of treatment, cells were recovered and lysed with NaOH to detect intracellular melanin. The absorbances (OD405) of the untreated group, the negative control group (treated with only a-MSH), the sample treatment group (treated with a-MSH and each sample by concentration), and the positive control group (treated with a-MSH and arbutin) were measured.

In test [2] the test system is tyrosinase from mushroom. The test is described as follows: Polyphenol oxidase (tyrosinase from mushroom) activity, catechol substrate, absorbance at 420 nm. In kind it is biochemical. Particulars: 50 mM sample, 30 mM catechol substrate, pH 6.5; FIG. 2. Here is the method: as §1
[3] abbreviates: reaction time 0 min (enzyme inactivated by heating).

For `OC[C@H]1O[C@@](CO)(O[C@H]2O[C@H](CO)[C@@H](O)[C@H](O)[C@H]2O)[C@@H](O)[C@@H]1O` [Comparative Example 1, sucrose], in the test on tyrosinase from mushroom [1], the “Reduction rate of catechol compared to initial stage of reaction” value (shortened to “Reduction rate of catechol”) worked out at 8.1%. Besides, the “tyrosinase activity (from catechol consumption, Table 2)” value with tyrosinase from mushroom [1] is recorded as “not inhibited at all”. Besides, the “amount of catechol in the enzyme reactant” value (“amount of catechol” below) with tyrosinase from mushroom [1] (setting [3]) amounted to 3296.7 ppm; in the test with tyrosinase from mushroom [1] (reaction time 30 min), 3112.0 ppm; in the test with tyrosinase from mushroom [1] (reaction time 60 min), 3031.0 ppm.
In the case of `O=C(CO)C(O)C(O)C(O)CO` (centres unmarked) [allulose], the “melanogenesis (intracellular melanin, OD405)” value was “inhibit melanogenesis; also recorded: melanogenesis was significantly inhibited” in the test with Murine melanocytes (1 wt % of sample); “melanogenesis was suppressed” with Murine melanocytes (allulose-treated group (0.01, 0.1 and 1 wt %)). For the same molecule, the “Reduction rate of catechol” value in the test with tyrosinase from mushroom [1] was determined as 6.1%. Moreover, the “tyrosinase activity (from catechol consumption, Table 2)” value in the test on tyrosinase from mushroom [1] is on record as “tyrosinase activity was inhibited”. Further, the “amount of catechol” value was 3288.7 ppm with tyrosinase from mushroom [1] (setting [3]), 3126.7 ppm with tyrosinase from mushroom [1] (reaction time 30 min) and 3087.0 ppm in the test on tyrosinase from mushroom [1] (reaction time 60 min). Also, in the test with tyrosinase from mushroom [2], the “tyrosinase activity (absorbance at 420 nm)” value is “tyrosinase activity was inhibited”.
Take `O=C(CO)[C@@H](O)[C@H](O)[C@H](O)CO` [fructose]: in the test with Murine melanocytes (1 wt % of sample), the “melanogenesis (intracellular melanin, OD405)” value is on record as “melanogenesis was not inhibited at all”. Further, the “Reduction rate of catechol” value in the test with tyrosinase from mushroom [1] came out at 8.2%. The “tyrosinase activity (from catechol consumption, Table 2)” value in the test with tyrosinase from mushroom [1] is “not inhibited at all”. The “amount of catechol” value in the test on tyrosinase from mushroom [1] (setting [3]) was determined as 3236.0 ppm; in the test on tyrosinase from mushroom [1] (reaction time 30 min) it was 3069.0 ppm; in the test on tyrosinase from mushroom [1] (reaction time 60 min), 2971.0 ppm. In addition, the “tyrosinase activity (absorbance at 420 nm)” value with tyrosinase from mushroom [2] was “not inhibited at all”.
